Measured values: article PMC9525908, “α-Crystallin chaperone mimetic drugs inhibit lens γ-crystallin aggregation: Potential role for cataract prevention” (The Journal of Biological Chemistry, 2022)
“Also recorded” adds a separate entry of the source.

Columns and labels:
Type in all cases: biochemical
[1] = target: T1, WT-HγD crystallin (Homo sapiens, UniProt P07320); experiment: Thermal unfolding of WT-HγD by fluorescence ratio (Tm); details: 100 μM agent, 360/320 nm ratio; 78 ± 0.1 °C without agent
T1 construct: made in house; host or cells: E. coli BL21(DE3) pLysS, pET3d vector
T1 sequence (P07320 1-174): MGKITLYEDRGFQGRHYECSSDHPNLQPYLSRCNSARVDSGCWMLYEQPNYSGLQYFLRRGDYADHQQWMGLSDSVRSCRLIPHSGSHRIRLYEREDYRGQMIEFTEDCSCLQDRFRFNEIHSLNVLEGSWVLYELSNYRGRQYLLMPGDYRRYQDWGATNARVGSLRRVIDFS
Description: His-tag free recombinant HγD crystallin produced in Escherichia coli using pET3d or pET17b expression vector was used to investigate the effects of compounds C and G against thermal-induced unfolding and aggregate formation. The antiaggregation potency of drug C and G was reconfirmed by dynamic light scattering (DLS) (Fig. 2A). […] There is a decrease in the size of aggregates from as high as 7261 nm without drugs to 30.5 nm with drug C and 84.9 nm with drug G. Drug M has moderate activity with mean aggregate size of 569 nm radius (Table S2). […] Furthermore, we investigated whether these drugs can prevent thermal unfolding of HγD (Fig. 2C). […] It is the temperature at which 50% of the protein unfolds.
(§1) Thermal denaturation study was monitored using fluorescence spectroscopy. Protein solutions (10 μM) in the presence and absence of drugs or bis-ANS (100 μM) were heated continuously from 30 to 95 °C, and the fluorescence data were collected every 5 °C after 1 min equilibration at the given temperature. Unfolding data were fit to Greene and Pace’s two-state model ([82]) using GraphPad Prism software (GraphPad Software, Inc).

[2] = target: T2, HγD-ox (Homo sapiens, UniProt P07320); experiment: Thermal unfolding (Tm) of oxidized HγD; details: 100 μM agent, 360/320 nm ratio; 68 ± 0.07 °C without agent
T2 construct: made in house; host or cells: Escherichia coli BL21(DE3) pLysS, pET3d vector
T2 sequence (P07320 1-174): T1 sequence (P07320 1-174)
Description: (§2) In postsubmission experiments, we attempted to find mechanistic clues relevant to the use of an H2O2 oxidation step prior to the thermal stress used during the initial drug screen. For this reason, we did a comparative study of oxidized (HγD-ox) versus native HγD (HyD-nat), hypothesizing that bis-ANS would both act like the drugs and provide information on the role of exposed hydrophobicity ([40]). HγD was oxidized in diethylenetriaminepentaacetic acid […] phosphate buffer to facilitate hydroxyl radical formation and protein damage, followed by dialysis against DTPA-treated buffer to eliminate the known proaggregating effects of divalent metals ([32]) in the subsequent steps. […] Overall protective effects were more pronounced for the oxidized than nonoxidized form of HγD. […] In the hope to obtain clues on the impact of bis-ANS, drugs C, G, and M on protein aggregation status, native PAGE was performed (Fig. 3G). Polymers greater than 250 kD are present in unheated HγD-nat but only the size of 75 to 100 kD in HγD-ox. […] Other techniques will be needed to assess the relationship between drugs and aggregate size.
as §1

[3] = target: T2, HγD-ox; experiment: Turbidity (600 nm) of oxidized HγD heated 10 min at 72 °C; details: 1.4 mg/ml with DTPA, 100 and 500 μM bis-ANS, 100 μM drug C, 500 μM drug M
Description: as §2

- Tm of HγD-nat [1]: 82 ± 0.02 °C
- Tm of HγD-ox [2]: 78 ± 0.1 °C
SMILES: O=S(=O)(O)c1cccc2c(-c3ccc(Nc4ccccc4)c4c(S(=O)(=O)O)cccc34)ccc(Nc3ccccc3)c12 [bis-ANS, bis-8-anilino-1-naphthalene sulfonic acid]
- Effect on aggregation/turbidity of HγD-ox [3]: strongly suppressed; also recorded: potently inhibited aggregation
